# Test results published in patent US11596639B2, “Substituted indole Mcl-1 inhibitors” (Vanderbilt University, priority 2016, dated 2023).
# Where two headings read alike, the source gives them in different places.
# Columns and labels:
# [1] = target: Mcl-1 (Homo sapiens (Human), UniProt Q07820); assay: Fluorescence polarization anisotropy (FPA) competition assay, FITC-Bak or FITC-Bim BH3 peptide; format: binding; conditions: read-out: Ki for Inhibition of Mcl-1 by FPA assay
# [2] = system: H929 human cancer cell lines; assay: Cellular viability / proliferation (Cell TiterGlo, 72 h); format: cell-based
# Outline: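 H929 cells plated at 1,000/well in 10% FBS medium received a 2-fold serial compound dilution (top 50 μM, DMSO <1%) 24 h later. After 72 h, viability was read by CellTiter-Glo luminescence. IC50 came from a four-parameter fit.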
# [3] = Homo sapiens, NCI-H929, 72 h, read-out: GI50 on cellular proliferation of H929 human cancer cell lines, H929 cells, 72 h, Cell TiterGlo, 10% FBS
# [4] = H929 cells, 72 h, Cell TiterGlo, 10% FBS, read-out: GI50 on cellular proliferation of H929 human cancer cell lines
# Chain of Mcl-1 (Q07820 172-327): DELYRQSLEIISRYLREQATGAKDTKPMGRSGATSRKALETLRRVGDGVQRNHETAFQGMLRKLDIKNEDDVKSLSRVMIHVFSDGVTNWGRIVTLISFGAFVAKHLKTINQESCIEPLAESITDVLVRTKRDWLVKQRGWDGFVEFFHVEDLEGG
compound,measurement,setting,value
"Cc1cc(OCCCc2c3n(c4c(-c5c(C)nn(C)c5C)c(Cl)ccc24)[C@H](C)CN(c2cccc4cc(C(=O)O)n(CC5CC5)c24)C3=O)cc(C)c1Cl [Example 254, 7-[(4R)-7-chloro-10-[3-(4-chloro-3,5-dimethyl-phenoxy)propyl]-4-methyl-1-oxo-6-(1,3,5-trimethylpyrazol-4-yl)-3,4-dihydropyrazino[1,2-a]indol-2-yl]-1-(cyclopropylmethyl)indole-2-carboxylic acid]",Ki,[1],< 1 nM
same,GI50,[2]; [3],580 nM
"Cc1cc(OCCCc2c3n(c4c(-c5c(C)nn(C)c5C)c(Cl)ccc24)[C@H](C)CN(c2nn(C)c4ccc(C(=O)O)cc24)C3=O)cc(C)c1Cl [Example 163, (R)-3-(7-Chloro-10-(3-(4-chloro-3,5-dimethylphenoxy)propyl)-4-methyl-1-oxo-6-(1,3,5-trimethyl-1H-pyrazol-4-yl)-3,4-dihydropyrazino[1,2-a]indol-2(1H)-yl)-1-methyl-1H-indazole-5-carboxylic acid]",Ki,[1],< 1 nM
same,GI50,[2]; [3],260 nM
"Cc1cc(OCCCc2c3n(c4c(-c5c(C)ncnc5C)c(Cl)ccc24)[C@H](C)CN(c2cn(C)c4cc(C(=O)O)ccc24)C3=O)cc(C)c1Cl [Example 153, 3-[(4R)-7-chloro-10-[3-(4-chloro-3,5-dimethyl-phenoxy)propyl]-6-(4,6-dimethylpyrimidin-5-yl)-4-methyl-1-oxo-3,4-dihydropyrazino[1,2-a]indol-2-yl]-1-methyl-indole-6-carboxylic acid]",Ki,[1],< 1 nM
same,GI50,[2]; [3],410 nM
"Cc1cc(OCCCc2c3n(c4c(-c5c(C)nn(C)c5C)c(Cl)ccc24)[C@H](C)CN(c2cccc4c2cc(C(=O)O)n4C)C3=O)cc(C)c1Cl [Example 113, (R)-4-(7-Chloro-10-(3-(4-chloro-3,5-dimethylphenoxy)propyl)-4-methyl-1-oxo-6-(1,3,5-trimethyl-1H-pyrazol-4-yl)-3,4-dihydropyrazino[1,2-a]indol-2(1H)-yl)-1-methyl-1H-indole-2-carboxylic acid]",Ki,[1],< 1 nM
same,GI50,[2]; [3],330 nM
"Cc1cc(OCCCc2c3n(c4c(-c5c(C)nn(C)c5C)c(Cl)ccc24)[C@H](C)CN(c2cn(C)c4cc(-c5nnn(C)n5)ccc24)C3=O)cc(C)c1Cl [Example 370, (R)-7-Chloro-10-(3-(4-chloro-3,5-dimethylphenoxy)propyl)-4-methyl-2-(1-methyl-6-(2-methyl-2H-tetrazol-5-yl)-1H-indol-3-yl)-6-(1,3,5-trimethyl-1H-pyrazol-4-yl)-3,4-dihydropyrazino[1,2-a]indol-1(2H)-one]",Ki,[1],2.8 nM
same,GI50,[2]; [3],4500 nM
"CCn1ccc2c(C(=O)O)cc(N3C[C@@H](C)n4c(c(CCCOc5cc(C)c(Cl)c(C)c5)c5ccc(Cl)c(-c6c(C)nn(C)c6C)c54)C3=O)cc21 [Example 99, (R)-6-(7-chloro-10-(3-(4-chloro-3,5-dimethylphenoxy)propyl)-4-methyl-1-oxo-6-(1,3,5-trimethyl-1H-pyrazol-4-yl)-3,4-dihydropyrazino[1,2-a]indol-2(1H)-yl)-1-ethyl-1H-indole-4-carboxylic acid]",Ki,[1],< 1 nM
same,GI50,[2]; [4],2100 nM
"Cc1cc(OCCCc2c3n(c4c(-c5c(C)nn(C)c5C)c(Cl)ccc24)[C@H](C)CN(c2cc(C(C)C)cc4cc(C(=O)O)n(C)c24)C3=O)cc(C)c1Cl [Example 356, (R)-7-(7-Chloro-10-(3-(4-chloro-3,5-dimethylphenoxy)propyl)-4-methyl-1-oxo-6-(1,3,5-trimethyl-1H-pyrazol-4-yl)-3,4-dihydropyrazino[1,2-a]indol-2(1H)-yl)-5-isopropyl-1-methyl-1H-indole-2-carboxylic acid]",Ki,[1],1.9 nM
same,GI50,[2]; [3],650 nM
"Cc1cc(OCCCc2c3n(c4c(-c5c(C)nn(C)c5C)c(Cl)ccc24)[C@H](C)CN(c2cccc4cc5n(c24)CCN(CCC(C)C)C5=O)C3=O)cc(C)c1Cl [Example 229, (4R)-7-chloro-10-[3-(4-chloro-3,5-dimethyl-phenoxy)propyl]-2-(2-isopentyl-1-oxo-3,4-dihydropyrazino[1,2-a]indol-6-yl)-4-methyl-6-(1,3,5-trimethylpyrazol-4-yl)-3,4-dihydropyrazino[1,2-a]indol-1-one]",Ki,[1],3.7 nM
same,GI50,[2]; [3],9300 nM
"Cc1nn(C)c(C)c1-c1c(Cl)ccc2c(CCCOc3ccc(Cl)cc3)c3n(c12)[C@H](C)CN(c1cn(C)c2ccc(C(=O)O)cc12)C3=O [Example 409, (R)-3-(7-Chloro-10-(3-(4-chlorophenoxy)propyl)-4-methyl-1-oxo-6-(1,3,5-trimethyl-1H-pyrazol-4-yl)-3,4-dihydropyrazino[1,2-a]indol-2(1H)-yl)-1-methyl-1H-indole-5-carboxylic acid]",Ki,[1],1.3 nM
same,GI50,[2]; [3],2800 nM
"Cc1cc(OCCCc2c3n(c4c(-c5c(C)ncnc5C)c(Cl)ccc24)CCCN(c2cn(C)c4cc(C(=O)O)ccc24)C3=O)cc(C)c1Cl [Example 176, 3-[8-Chloro-11-[3-(4-chloro-3,5-dimethyl-phenoxy)propyl]-7-(4,6-dimethylpyrimidin-5-yl)-1-oxo-4,5-dihydro-3H-[1,4]diazepino[1,2-a]indol-2-yl]-1-methyl-indole-6-carboxylic acid]",Ki,[1],< 1 nM
same,GI50,[2]; [3],410 nM
"Cc1cc(OCCCc2c3n(c4c(-c5c(C)ncnc5C)c(Cl)ccc24)CCCN(c2cccc4c(C(=O)O)cn(C)c24)C3=O)cc(C)c1Cl [Example 119, 7-[8-chloro-11-[3-(4-chloro-3,5-dimethyl-phenoxy)propyl]-7-(4,6-dimethylpyrimidin-5-yl)-1-oxo-4,5-dihydro-3H-[1,4]diazepino[1,2-a]indol-2-yl]-1-methyl-indole-3-carboxylic acid]",Ki,[1],< 1 nM
same,GI50,[2]; [3],2900 nM
"COc1ccnc(Cn2c(C(=O)O)cc3cccc(N4C[C@@H](C)n5c(c(CCCOc6cc(C)c(Cl)c(C)c6)c6ccc(Cl)c(-c7c(C)nn(C)c7C)c65)C4=O)c32)c1 [Example 378, (R)-7-(7-Chloro-10-(3-(4-chloro-3,5-dimethylphenoxy)propyl)-4-methyl-1-oxo-6-(1,3,5-trimethyl-1H-pyrazol-4-yl)-3,4-dihydropyrazino[1,2-a]indol-2(1H)-yl)-1-((4-methoxypyridin-2-yl)methyl)-1H-indole-2-carboxylic acid]",Ki,[1],1.9 nM
same,GI50,[2]; [3],410 nM
"Cc1cc(OCCCc2c3n(c4c(-c5c(C)nn(C)c5C)c(Cl)ccc24)[C@H](C)CN(c2cccc4c(C(=O)O)cn(Cc5cccnc5)c24)C3=O)cc(C)c1Cl [Example 467, (R)-7-(7-Chloro-10-(3-(4-chloro-3,5-dimethylphenoxy)propyl)-4-methyl-1-oxo-6-(1,3,5-trimethyl-1H-pyrazol-4-yl)-3,4-dihydropyrazino[1,2-a]indol-2(1H)-yl)-1-(pyridin-3-ylmethyl)-1H-indole-3-carboxylic acid]",Ki,[1],1.3 nM
same,GI50,[2]; [3],1300 nM
"Cc1cc(OCCCc2c3n(c4c(-c5c(C)nn(C)c5C)c(Cl)ccc24)[C@H](C)CN(c2cccc4c(C)c(C(=O)O)n(C)c24)C3=O)cc(C)c1Cl [Example 316, (R)-7-(7-Chloro-10-(3-(4-chloro-3,5-dimethylphenoxy)propyl)-4-methyl-1-oxo-6-(1,3,5-trimethyl-1H-pyrazol-4-yl)-3,4-dihydropyrazino[1,2-a]indol-2(1H)-yl)-1,3-dimethyl-1H-indole-2-carboxylic acid]",Ki,[1],< 1 nM
same,GI50,[2]; [3],470 nM
"Cc1cc(OCCCc2c3n(c4c(-c5c(C)nn(C)c5C)c(Cl)ccc24)[C@H](C)CN(c2cc4cc(C(=O)O)ccc4n2C)C3=O)cc(C)c1Cl [Example 174, 2-[(4R)-7-chloro-10-[3-(4-chloro-3,5-dimethyl-phenoxy)propyl]-4-methyl-1-oxo-6-(1,3,5-trimethylpyrazol-4-yl)-3,4-dihydropyrazino[1,2-a]indol-2-yl]-1-methyl-indole-5-carboxylic acid]",Ki,[1],4.2 nM
same,GI50,[2]; [3],6300 nM
"CCn1cc(N2C[C@@H](C)n3c(c(CCCOc4cc(C)c(Cl)c(C)c4)c4ccc(Cl)c(-c5c(C)nn(C)c5C)c43)C2=O)c2ccc(C(=O)O)cc21 [Example 104, (R)-3-(7-Chloro-10-(3-(4-chloro-3,5-dimethylphenoxy)propyl)-4-methyl-1-oxo-6-(1,3,5-trimethyl-1H-pyrazol-4-yl)-3,4-dihydropyrazino[1,2-a]indol-2(1H)-yl)-1-ethyl-1H-indole-6-carboxylic acid]",Ki,[1],< 1 nM
same,GI50,[2]; [3],570 nM
"Cc1cc(OCCCc2c3n(c4c(-c5c(C)nn(C)c5C)c(Cl)ccc24)[C@H](C)CN(c2ccc(OCc4ccccc4)c4c2cc(C(=O)O)n4C)C3=O)cc(C)c1Cl [Example 299, (P, R)-7-(benzyloxy)-4-(7-chloro-10-(3-(4-chloro-3,5-dimethylphenoxy)propyl)-4-methyl-1-oxo-6-(1,3,5-trimethyl-1H-pyrazol-4-yl)-3,4-dihydropyrazino[1,2-a]indol-2(1H)-yl)-1-methyl-1H-indole-2-carboxylic acid]",Ki,[1],2 nM
same,GI50,[2]; [4],2300 nM
"Cc1cc(OCCCc2c3n(c4c(-c5c(C)nn(C)c5C)c(Cl)ccc24)[C@H](C)CN(c2cc(OCCN4CCOCC4)cc4cc(C(=O)O)n(C)c24)C3=O)cc(C)c1Cl [Example 458, (R)-7-(7-Chloro-10-(3-(4-chloro-3,5-dimethylphenoxy)propyl)-4-methyl-1-oxo-6-(1,3,5-trimethyl-1H-pyrazol-4-yl)-3,4-dihydropyrazino[1,2-a]indol-2(1H)-yl)-1-methyl-5-(2-morpholinoethoxy)-1H-indole-2-carboxylic acid]",Ki,[1],1.2 nM
same,GI50,[2]; [3],290 nM
"Cc1cc(OCCCc2c3n(c4c(-c5c(C)nn(C)c5C)c(Cl)ccc24)[C@H](C)CN(c2cccc4c2ccn4CC(=O)O)C3=O)cc(C)c1Cl [Example 134, (R)-2-(4-(7-Chloro-10-(3-(4-chloro-3,5-dimethylphenoxy)propyl)-4-methyl-1-oxo-6-(1,3,5-trimethyl-1H-pyrazol-4-yl)-3,4-dihydropyrazino[1,2-a]indol-2(1H)-yl)-1H-indol-1-yl)acetic acid]",Ki,[1],< 1 nM
same,GI50,[2]; [3],11000 nM
